Test results as given in paper PMC7994357, “Gene Expression, Biochemical Characterization of a sn-1, 3 Extracellular Lipase From Aspergillus niger GZUF36 and Its Model-Structure Analysis” (Frontiers in Microbiology, 2021).

Molecular target: T1, PEXANL1 (Aspergillus niger, UniProt A0A5C2GD86)
T1 construct: mature peptide (278 residues of 297, signal peptide removed), extra N-terminal residues, C-terminal 6xHis kept; secreted from Pichia pastoris GS115 (pPIC9K, codon-optimised), Ni-NTA purified, Endo Hf deglycosylated
T1 sequence (A0A5C2GD86 20-297): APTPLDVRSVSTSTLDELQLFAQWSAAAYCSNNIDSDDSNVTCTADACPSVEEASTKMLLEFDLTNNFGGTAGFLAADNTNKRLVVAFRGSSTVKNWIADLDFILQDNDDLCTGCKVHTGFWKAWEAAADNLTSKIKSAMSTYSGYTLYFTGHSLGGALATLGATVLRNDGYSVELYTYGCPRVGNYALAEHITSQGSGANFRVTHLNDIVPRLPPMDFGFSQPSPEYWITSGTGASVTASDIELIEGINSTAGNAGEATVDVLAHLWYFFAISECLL
Assay: ultrasound-assisted solvent-free esterification, HPLC of glycerides
Format: biochemical
Conditions: 40 °C, ultrasound 200 W, 40 kHz

Row | Compound | ultrasound-assisted solvent-free esterification, HPLC of glycerides (co-substrate oleic acid (glycerol to oleic acid 5:1 molar)) | ultrasound-assisted solvent-free esterification, HPLC of glycerides (co-substrate glycerol (glycerol to oleic acid 5:1 molar))
1 | OCC(O)CO [glycerol] | Ultrasound-assisted esterification of oleic acid (OA) with glycerol was studied | 
2 | CCCCCCCC/C=C\CCCCCCCC(=O)O [oleic acid] |  | Ultrasound-assisted esterification of oleic acid (OA) with glycerol was studied
